Experimental findings from patent EP4786468A1, “CRYSTALLINE FORM OF HDAC6 INHIBITOR AND PREPARATION METHOD THEREFOR” (Suzhou Genhouse Bio Co., Ltd., priority 2023, dated 2025) are described below.

Converted amounts (≈) assume the structure as drawn.

Common to all, as to format: physicochemical
Series [1] can be described thus: Solubility in water (HPLC). The conditions noted are these: H2O, 37°C. On the procedure:
The vial was stirred and observed in a 37°C water bath. If the sample dissolved completely, more sample was added until undissolved material remained after rotary mixing. The sample vial was sealed and stirred in a 37°C water bath for 24h, then centrifuged. The supernatant was filtered and the solubility was measured by HPLC.

Series [2] is described as follows: Dynamic solubility in biorelevant media (HPLC). As to conditions: 37°C. On the procedure: FaSSGF (Fasted State Simulated Gastric Fluid), FeSSGF (Fed State Simulated Gastric Fluid), FaSSIF (Fasted State Simulated Intestinal Fluid), and FeSSIF (Fed State Simulated Intestinal Fluid) are biorelevant media. These media better reflect the impact of the gastrointestinal physiological environment on drug release. Solubility tested in these media is closer to solubility in the human body environment.
The vial was stirred and observed in a 37°C water bath. If the sample dissolved completely, more sample was added until undissolved material remained after rotary mixing. The sample vial was sealed and stirred in a 37°C water bath for 24h, then centrifuged. The supernatant was filtered and the solubility was measured by HPLC. Table 13: Dynamic Solubility of Crystal Forms in Biorelevant Media

A short description of series [3]: Stability of the crystal form under accelerated conditions (XRPD, HPLC). As to conditions: for % Area: chemical stability. On the procedure: Solid samples separated under different conditions were evaluated for physical stability via XRPD testing for crystalline form and for chemical stability via HPLC testing for purity.
Appropriate amounts of crystal form I samples were taken and subjected to a stability experiment under accelerated conditions of 40 °C/75%RH/open/1 month. Physical stability was evaluated by XRPD testing. Table 14: Stability of crystal form I

Usually solubility stands for the dissolved amount per volume that the medium holds. With `O=C(N[C@@H]1CCCC[C@H]1N1Cc2ccc(-c3nnc(C(F)F)o3)cc2S1(=O)=O)C(F)F` [Crystal Form I], the solubility at 24 h in series [1] was found to be 49.8 µg/mL (≈ 108 µM); in series [2] (FaSSGF), 51.9 µg/mL (≈ 112 µM); in series [2] (FaSSIF), 96.2 µg/mL (≈ 208 µM); in series [2] (FeSSGF) it was 55 µg/mL (≈ 119 µM); in series [2] (FeSSIF), 87.5 µg/mL (≈ 189 µM). In addition, the solubility at 1 h in series [2] (FaSSGF) came out at 34.5 µg/mL (≈ 74.6 µM); in series [2] (FeSSGF), 45.5 µg/mL (≈ 98.4 µM). The “XRPD characteristic peaks (physical stability)” value in series [3] (40 °C/75%RH/open/1 month) is recorded as “remained unchanged”. For the same compound, the “% Area” value in series [3] (40 °C/75%RH/open/1 month, HPLC peak of Compound of formula (I)) was 99.51 % Area; in series [3] (T0, HPLC peak of Compound of formula (I)), 99.51 % Area.
